Measurements as given in ChEMBL document CHEMBL1201862, “PubChem BioAssay data set” (2004).
Activity calls are given as the source filed them.

How the values were obtained:
[1] = Trypanosoma cruzi growth suppression in host cells – NIH3T3 host cells, beta-gal luminescence, confirmation (AID 2044); format: functional, cell-based;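 further: intracellular parasites grown in NIH/3T3 mouse fibroblasts as host cells; luminescent beta-galactosidase reporter signal from transgenic T. cruzi replicating inside host cells; inhibitors lower the luminescence signal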
[2] = NIH3T3 cell viability loss – ATP luminescence, mouse fibroblasts, counter-screen, dose response (AID 2010); format: functional, cell-based;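 further: cells exposed to compound for about 90 hours before reading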
[3] = biological target: T1, Short transient receptor potential channel 4 (Mus musculus, UniProt Q9QUQ5); assay: calcium entry via TRPC4 opening agents – cell-based, HEK293 TRPC4/mu-opioid, Fluo-4 calcium, dose response (AID 434937); format: functional
T1 sequence (Q9QUQ5 whole entry): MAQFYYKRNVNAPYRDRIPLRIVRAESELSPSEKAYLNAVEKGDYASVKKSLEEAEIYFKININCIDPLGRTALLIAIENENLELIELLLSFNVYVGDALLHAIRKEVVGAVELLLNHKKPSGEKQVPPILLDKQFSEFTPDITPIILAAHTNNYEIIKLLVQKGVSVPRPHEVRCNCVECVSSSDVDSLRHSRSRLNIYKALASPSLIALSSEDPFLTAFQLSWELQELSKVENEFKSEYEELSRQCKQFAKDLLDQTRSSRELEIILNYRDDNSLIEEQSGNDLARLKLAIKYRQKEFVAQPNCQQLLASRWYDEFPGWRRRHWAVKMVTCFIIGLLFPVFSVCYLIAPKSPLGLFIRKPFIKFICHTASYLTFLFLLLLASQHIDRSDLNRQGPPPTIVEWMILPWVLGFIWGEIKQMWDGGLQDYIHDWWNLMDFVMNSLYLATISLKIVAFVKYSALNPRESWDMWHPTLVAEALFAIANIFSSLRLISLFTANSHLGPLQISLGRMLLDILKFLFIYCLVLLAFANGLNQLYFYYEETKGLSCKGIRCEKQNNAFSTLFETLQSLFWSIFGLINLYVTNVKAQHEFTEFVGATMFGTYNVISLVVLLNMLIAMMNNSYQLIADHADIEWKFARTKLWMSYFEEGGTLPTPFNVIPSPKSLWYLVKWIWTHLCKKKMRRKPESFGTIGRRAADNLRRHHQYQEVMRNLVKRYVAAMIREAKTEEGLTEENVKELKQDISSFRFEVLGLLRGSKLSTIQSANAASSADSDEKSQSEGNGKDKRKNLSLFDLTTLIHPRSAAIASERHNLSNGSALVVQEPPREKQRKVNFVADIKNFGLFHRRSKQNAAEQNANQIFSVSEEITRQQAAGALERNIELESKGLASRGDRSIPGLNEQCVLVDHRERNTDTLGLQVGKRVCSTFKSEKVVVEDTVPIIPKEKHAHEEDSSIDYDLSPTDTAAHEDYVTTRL

[4] = biological target: Delta-type opioid receptor (Homo sapiens, UniProt P41143); assay: Counterscreen for agonists of heterodimerization of the mu 1 (OPRM1) and delta 1 (OPRD1) opioid receptors: Luminescence-based cell-based high throughput dose response assay to identify agonists of OPRD1 homodimerization. [Related pubchem assays (depositor defined):AID504326, AID504355, AID504692, AID504904, AID504905]; format: functional
Nonstructural protein 1 = Nonstructural protein 1 (Influenza A virus, UniProt Q194T2); format: functional, Influenza A virus (A/California/07/2009(H1N1))
[5] = biological target: 5-hydroxytryptamine receptor 5A (Homo sapiens, UniProt P47898); assay: Counterscreen for agonists of OPRM1-OPRD1 heterodimerization: luminescence-based cell-based high throughput dose response assay to identify agonists of 5-hydroxytryptamine (serotonin) 5A receptor (HTR5A). [Related pubchem assays (depositor defined):AID504326, AID504355, AID504692, AID504904, AID504905]; format: functional
Mu-type opioid receptor = Mu-type opioid receptor (Homo sapiens, UniProt P35372); assay: Counterscreen for agonists of heterodimerization of the mu 1 (OPRM1) and delta 1 (OPRD1) opioid receptors: Luminescence-based cell-based high throughput dose response assay to identify agonists of OPRM1 homodimerization.; format: functional;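 further: U2OS cells expressing OPRM1 and beta-arrestin as split beta-galactosidase partners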
Escherichia coli [6] = assay: microbe, parasite or virus in culture
Escherichia coli [7] = assay: microbe, parasite or virus in culture; remark: listed apart in the source
A-375 [8] = assay: proliferation inhibition in MITF-low A375 cells – cell-based, cherry-pick samples, set 2, counter-screen for MITF modulator project, dose response (AID 540335); format: functional; settings: Homo sapiens
A-375 [9] = assay: MITF: Counter assay: A375 proliferation Measured in Cell-Based System Using Plate Reader - 2084-03_Inhibitor_Dose_DryPowder_Activity. [Related pubchem assays (depositor defined):AID488944]; format: functional; settings: Homo sapiens
CAAX prenyl protease 2 = CAAX prenyl protease 2 (Homo sapiens, UniProt Q9Y256); assay: inhibition of Ras-converting CAAX protease Rce1 – biochemical, yeast membranes, quenched-peptide fluorescence, cherry-pick, dose response (AID 588849)
Trypsin = Trypsin (Sus scrofa, UniProt P00761); assay: trypsin protease activity blockade – biochemical, quenched peptide fluorescence, cherry-pick, selectivity assay for Rce1 protease inhibitor project, dose response (AID 488789)
[10] = biological target: Dual specificity protein kinase CLK1 (Homo sapiens, UniProt P49759); assay: inhibition of human CLK1 activity – biochemical, cherry-picked samples, selectivity assay for Dyrk1A inhibitor project, dose response (AID 588811)
[11] = biological target: T2, Sentrin-specific protease 7 (Homo sapiens, UniProt Q9BQF6); assay: inhibition of human SENP7 cleavage activity – biochemical, luminescence, set 2, SAR follow-up (AID 588600); format: functional
T2 sequence (Q9BQF6 whole entry): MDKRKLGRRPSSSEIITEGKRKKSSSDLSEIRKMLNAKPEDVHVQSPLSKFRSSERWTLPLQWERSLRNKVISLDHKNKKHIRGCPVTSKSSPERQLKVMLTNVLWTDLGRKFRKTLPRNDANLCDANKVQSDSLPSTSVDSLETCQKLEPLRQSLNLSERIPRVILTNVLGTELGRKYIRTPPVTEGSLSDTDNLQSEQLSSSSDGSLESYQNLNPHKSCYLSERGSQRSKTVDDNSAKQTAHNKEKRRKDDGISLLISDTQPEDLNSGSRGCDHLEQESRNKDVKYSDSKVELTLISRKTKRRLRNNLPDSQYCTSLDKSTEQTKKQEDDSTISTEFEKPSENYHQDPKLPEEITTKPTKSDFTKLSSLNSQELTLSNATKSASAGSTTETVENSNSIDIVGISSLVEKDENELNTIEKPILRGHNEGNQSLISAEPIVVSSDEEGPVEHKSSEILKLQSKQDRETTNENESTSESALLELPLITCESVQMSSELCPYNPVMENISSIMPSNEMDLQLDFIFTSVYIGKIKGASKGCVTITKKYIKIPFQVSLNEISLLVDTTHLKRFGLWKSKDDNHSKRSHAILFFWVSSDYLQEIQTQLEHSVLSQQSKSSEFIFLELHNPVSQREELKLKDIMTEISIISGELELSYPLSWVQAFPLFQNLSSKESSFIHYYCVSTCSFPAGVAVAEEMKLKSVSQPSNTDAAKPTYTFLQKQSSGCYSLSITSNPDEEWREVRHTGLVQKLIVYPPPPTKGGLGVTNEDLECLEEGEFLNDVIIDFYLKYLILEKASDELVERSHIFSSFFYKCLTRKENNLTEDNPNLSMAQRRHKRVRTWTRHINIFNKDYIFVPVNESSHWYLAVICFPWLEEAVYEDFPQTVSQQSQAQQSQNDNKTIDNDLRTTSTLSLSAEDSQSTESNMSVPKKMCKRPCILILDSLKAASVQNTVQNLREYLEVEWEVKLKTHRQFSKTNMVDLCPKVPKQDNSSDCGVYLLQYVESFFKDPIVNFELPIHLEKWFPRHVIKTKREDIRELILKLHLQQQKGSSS

Caspase-3 = biological target: T3, Caspase-3 (Homo sapiens, UniProt P42574); assay: inhibition of recombinant caspase-3 activity – biochemical, luminescence, set 2, selectivity assay for SENP protease inhibitor project, SAR follow-up (AID 588599); format: functional
T3 sequence (P42574 whole entry): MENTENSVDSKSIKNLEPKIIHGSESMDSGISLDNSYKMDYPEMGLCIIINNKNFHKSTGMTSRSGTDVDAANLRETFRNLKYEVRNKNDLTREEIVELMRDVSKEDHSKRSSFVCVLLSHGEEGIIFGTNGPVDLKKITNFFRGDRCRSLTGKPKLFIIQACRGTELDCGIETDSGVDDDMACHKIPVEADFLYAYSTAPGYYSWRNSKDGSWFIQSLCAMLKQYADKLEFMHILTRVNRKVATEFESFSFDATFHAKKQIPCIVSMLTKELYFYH

[12] = biological target: T4, Sentrin-specific protease 6 (Homo sapiens, UniProt Q9GZR1); assay: inhibition of human SENP6 catalytic domain – biochemical, luminescence, set 2, SAR follow-up (AID 588598); format: functional
T4 sequence (Q9GZR1 whole entry): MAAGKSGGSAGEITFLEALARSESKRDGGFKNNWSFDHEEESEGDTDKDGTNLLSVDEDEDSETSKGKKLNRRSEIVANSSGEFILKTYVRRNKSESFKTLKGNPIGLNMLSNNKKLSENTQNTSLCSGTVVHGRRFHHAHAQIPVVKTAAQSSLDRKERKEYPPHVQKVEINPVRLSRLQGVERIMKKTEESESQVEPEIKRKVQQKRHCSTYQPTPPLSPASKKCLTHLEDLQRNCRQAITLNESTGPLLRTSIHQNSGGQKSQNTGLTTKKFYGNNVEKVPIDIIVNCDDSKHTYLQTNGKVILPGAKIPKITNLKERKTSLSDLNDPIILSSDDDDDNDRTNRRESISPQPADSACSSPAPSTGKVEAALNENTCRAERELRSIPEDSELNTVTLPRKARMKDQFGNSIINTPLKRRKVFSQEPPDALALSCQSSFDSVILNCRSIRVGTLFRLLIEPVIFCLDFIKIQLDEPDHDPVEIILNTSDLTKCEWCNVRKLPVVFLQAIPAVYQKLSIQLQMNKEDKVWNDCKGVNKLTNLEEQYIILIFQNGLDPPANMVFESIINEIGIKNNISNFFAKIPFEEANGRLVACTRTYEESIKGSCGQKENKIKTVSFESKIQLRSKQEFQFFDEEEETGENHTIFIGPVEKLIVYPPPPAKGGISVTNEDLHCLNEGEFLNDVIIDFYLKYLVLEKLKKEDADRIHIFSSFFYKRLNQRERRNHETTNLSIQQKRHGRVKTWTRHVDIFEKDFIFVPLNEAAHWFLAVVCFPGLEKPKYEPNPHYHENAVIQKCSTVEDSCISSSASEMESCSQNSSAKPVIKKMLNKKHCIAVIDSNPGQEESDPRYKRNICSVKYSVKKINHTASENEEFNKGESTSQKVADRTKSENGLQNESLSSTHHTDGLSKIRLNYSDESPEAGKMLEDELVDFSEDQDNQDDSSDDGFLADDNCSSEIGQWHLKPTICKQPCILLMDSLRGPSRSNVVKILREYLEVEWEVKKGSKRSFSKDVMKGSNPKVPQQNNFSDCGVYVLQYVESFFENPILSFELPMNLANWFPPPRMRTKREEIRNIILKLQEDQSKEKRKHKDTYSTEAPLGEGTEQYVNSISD

[13] = biological target: T5, Sentrin-specific protease 8 (Homo sapiens, UniProt Q96LD8); assay: inhibition of sentrin protease 8 – biochemical, luminescence, set 2, SAR follow-up (AID 588601); format: functional
T5 sequence (Q96LD8 whole entry): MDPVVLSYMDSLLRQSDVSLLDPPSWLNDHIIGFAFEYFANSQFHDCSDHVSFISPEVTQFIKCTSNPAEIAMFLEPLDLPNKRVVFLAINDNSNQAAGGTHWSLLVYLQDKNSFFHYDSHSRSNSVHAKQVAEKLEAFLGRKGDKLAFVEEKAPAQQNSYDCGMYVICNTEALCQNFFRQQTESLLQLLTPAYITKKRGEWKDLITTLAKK

Dual specificity protein kinase CLK1, sequence (P49759 whole entry): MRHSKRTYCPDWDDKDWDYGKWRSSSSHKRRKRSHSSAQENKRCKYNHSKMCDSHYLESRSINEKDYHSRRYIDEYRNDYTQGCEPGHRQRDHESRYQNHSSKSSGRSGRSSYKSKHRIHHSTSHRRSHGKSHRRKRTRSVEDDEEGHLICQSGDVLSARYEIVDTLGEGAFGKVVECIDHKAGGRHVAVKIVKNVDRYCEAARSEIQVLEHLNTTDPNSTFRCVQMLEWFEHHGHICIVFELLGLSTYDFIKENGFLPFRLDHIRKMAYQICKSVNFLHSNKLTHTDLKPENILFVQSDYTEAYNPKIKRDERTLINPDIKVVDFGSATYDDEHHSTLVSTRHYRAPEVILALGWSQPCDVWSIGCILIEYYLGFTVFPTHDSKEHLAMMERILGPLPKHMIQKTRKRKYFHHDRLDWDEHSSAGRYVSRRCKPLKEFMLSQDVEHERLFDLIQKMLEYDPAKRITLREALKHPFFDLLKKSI
Delta-type opioid receptor, sequence (P41143 whole entry): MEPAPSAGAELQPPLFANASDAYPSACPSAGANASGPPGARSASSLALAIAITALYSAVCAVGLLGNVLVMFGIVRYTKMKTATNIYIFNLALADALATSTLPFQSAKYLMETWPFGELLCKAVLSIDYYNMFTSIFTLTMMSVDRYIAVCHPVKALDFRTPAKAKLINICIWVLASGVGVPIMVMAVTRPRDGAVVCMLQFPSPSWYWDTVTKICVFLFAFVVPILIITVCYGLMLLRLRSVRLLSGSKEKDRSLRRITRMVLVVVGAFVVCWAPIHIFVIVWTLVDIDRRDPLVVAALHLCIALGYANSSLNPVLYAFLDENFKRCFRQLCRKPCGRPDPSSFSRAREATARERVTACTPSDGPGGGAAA
Mu-type opioid receptor, sequence (P35372 whole entry): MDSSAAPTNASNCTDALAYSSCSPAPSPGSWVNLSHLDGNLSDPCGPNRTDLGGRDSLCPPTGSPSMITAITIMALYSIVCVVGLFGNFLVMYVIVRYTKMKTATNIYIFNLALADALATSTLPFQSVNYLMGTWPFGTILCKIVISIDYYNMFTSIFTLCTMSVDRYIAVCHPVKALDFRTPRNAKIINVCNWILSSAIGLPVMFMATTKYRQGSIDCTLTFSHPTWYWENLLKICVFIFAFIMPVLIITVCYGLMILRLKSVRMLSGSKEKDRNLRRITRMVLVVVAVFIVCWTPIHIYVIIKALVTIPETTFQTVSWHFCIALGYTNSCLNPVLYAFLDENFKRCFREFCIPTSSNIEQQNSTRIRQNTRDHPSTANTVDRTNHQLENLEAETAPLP
5-hydroxytryptamine receptor 5A, sequence (P47898 whole entry): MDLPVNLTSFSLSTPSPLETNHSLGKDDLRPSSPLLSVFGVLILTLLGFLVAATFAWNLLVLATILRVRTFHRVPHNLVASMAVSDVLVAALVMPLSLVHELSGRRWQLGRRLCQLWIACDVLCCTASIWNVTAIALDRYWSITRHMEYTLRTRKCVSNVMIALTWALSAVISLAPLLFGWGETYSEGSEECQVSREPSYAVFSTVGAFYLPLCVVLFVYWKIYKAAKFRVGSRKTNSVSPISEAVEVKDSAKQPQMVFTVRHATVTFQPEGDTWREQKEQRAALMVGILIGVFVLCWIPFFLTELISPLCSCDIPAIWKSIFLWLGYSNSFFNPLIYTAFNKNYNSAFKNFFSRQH
CAAX prenyl protease 2, sequence (Q9Y256 whole entry): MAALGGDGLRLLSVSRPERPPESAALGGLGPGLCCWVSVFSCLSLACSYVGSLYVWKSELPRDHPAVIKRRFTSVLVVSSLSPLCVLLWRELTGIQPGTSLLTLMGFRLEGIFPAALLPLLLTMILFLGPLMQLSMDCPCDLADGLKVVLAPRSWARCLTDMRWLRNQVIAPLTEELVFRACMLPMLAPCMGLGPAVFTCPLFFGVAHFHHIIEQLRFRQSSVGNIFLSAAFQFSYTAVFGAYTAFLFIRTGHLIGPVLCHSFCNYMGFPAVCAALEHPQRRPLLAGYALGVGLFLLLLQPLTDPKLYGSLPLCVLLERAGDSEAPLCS
Nonstructural protein 1, sequence (Q194T2 whole entry): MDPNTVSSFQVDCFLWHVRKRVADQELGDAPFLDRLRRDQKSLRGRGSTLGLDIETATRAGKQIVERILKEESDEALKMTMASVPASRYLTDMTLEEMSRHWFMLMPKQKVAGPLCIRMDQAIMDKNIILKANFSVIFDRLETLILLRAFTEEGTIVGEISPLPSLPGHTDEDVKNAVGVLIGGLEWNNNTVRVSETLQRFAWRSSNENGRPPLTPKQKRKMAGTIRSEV
Trypsin, sequence (P00761 whole entry): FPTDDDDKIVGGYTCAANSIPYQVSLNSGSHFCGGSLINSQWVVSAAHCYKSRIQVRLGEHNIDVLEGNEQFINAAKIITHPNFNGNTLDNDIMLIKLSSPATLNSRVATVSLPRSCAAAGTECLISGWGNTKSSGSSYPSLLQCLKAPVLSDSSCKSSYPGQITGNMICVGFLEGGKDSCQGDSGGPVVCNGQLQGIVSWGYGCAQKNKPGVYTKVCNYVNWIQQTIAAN

Cc1cc(N2CCN(C)CC2)ccc1NC(=O)c1ccc(-c2ccc(Cl)cc2)o1
EC50 [1]: 0.254 µM (active) | EC50 [2]: 9.64 µM (active) | EC50 [3]: 0.749 µM (active) | EC50 [4]: > 92.4 µM (inactive) | IC50 (Nonstructural protein 1): 44 µM (active) | EC50 [5]: > 92.4 µM (inactive) | EC50 (Mu-type opioid receptor): > 92.4 µM (inactive)

O=C(CSC1=NCCS1)c1ccc(Cl)cc1
AC50 (Escherichia coli [6]): 28 µM (active)

Cc1ccccc1OCC(=O)Nc1nnc(-c2ccncc2)s1
AC50 (Escherichia coli [7]): 39.7 µM (active)

O=C(NCc1ccc2c(c1)OCO2)c1cc(O)nc2ccccc12
AC50 (A-375 [8]): > 35 µM (active) | AC50 (A-375 [9]): > 35 µM (active)

Cc1cc(=O)oc2c3c(cc(OCC(=O)N4CCC(C(=O)O)CC4)c12)OC(C)(C)CC3
AC50 (CAAX prenyl protease 2): 1.28 µM (active) | AC50 (Trypsin): 1.51 µM (active)

CC(Nc1nc(-c2cccnc2)nc2ccccc12)c1ccc(F)cc1 (stereo not drawn)
EC50 [1]: 0.658 µM (active) | EC50 [2]: 14.4 µM (active) | AC50 [10]: 9.34 µM (active)

Cc1ccc(CNc2ncnc3ccc(-c4ccc5c(c4)OCO5)cc23)o1
AC50 [10]: 0.0226 µM (active)

O=C(NCc1ccco1)c1ccc(COCC(F)(F)F)cc1
AC50 (A-375 [8]): > 35 µM (active) | AC50 (A-375 [9]): > 35 µM (active)

CCOC(=O)c1c(-c2ccc(OC)cc2)oc2ccc(OC(=O)N(C)C)cc12
AC50 (CAAX prenyl protease 2): 6.46 µM (active)

C=CCn1c(SCC(=O)NCc2ccc3c(c2)OCO3)nnc1-c1cccnc1
AC50 (Escherichia coli [7]): 50.2 µM (active)

CN(C)CCCN(C(=O)c1ccc(S(=O)(=O)N2CCCCCC2)cc1)c1nc2c(F)cc(F)cc2s1
EC50 [3]: 5.31 µM (active) | EC50 [4]: > 92.4 µM (inactive) | EC50 [5]: > 92.4 µM (inactive) | EC50 (Mu-type opioid receptor): 33.4 µM (inactive)

CCOc1cccc2sc(NC(=O)c3ccc(C#N)cc3)nc12
IC50 [11]: > 99 µM (inactive) | IC50 (Caspase-3): > 99 µM (inactive) | IC50 [12]: > 99 µM (inactive) | IC50 [13]: > 99 µM (inactive)

CN(C(=O)C(=O)c1c[nH]c2ccccc12)C1CCCCC1
IC50 [11]: > 99 µM (inactive) | IC50 (Caspase-3): > 99 µM (inactive) | IC50 [12]: > 99 µM (inactive) | IC50 [13]: > 99 µM (inactive)
